Reference: patent US20150376198A1, “MODULATORS OF VASOPRESSIN RECEPTORS WITH THERAPEUTIC POTENTIAL” (priority 2013, published 2015)
Read-outs that look alike come from different tables or passages of the source.

Experiments:
[1] = molecular target: T1, human V1a receptor (Homo sapiens, UniProt P37288); assay: Vasopressin V1a receptor binding assay (3H-AVP competition, CHO cells)
T1 construct: expressed in transfected cells; host or cells: CHO cells (G418-selected hV1a cell line)
Protocol: (§1) Data represent Ki values (nM) or mean % inhibition (indicated as %) for exemplary compounds of formula (I) tested versus receptor subtypes.
(§2) The default concentration for primary binding experiments was 10 μM.
Vasopressin V1a Receptor Binding Assay.
A cell line expressing the human Via receptor in CHO cells is used. The hV1a cDNA sequence is described by Thibonnier et al., (1994), and the expression method is the same as described by Morel et al. (1992). The hV1a cell line is grown in alpha-MEM with 10% fetal bovine serum and 250 ug/ml G418 (Gibco, Grand Island, N.Y., USA). For competitive binding assay, hV1a cells are plated into 6-well culture plate at 1:10 dilution from a confluency flask, and maintained in culture for at least two days. Culture medium is then removed, cells washed with 2 ml binding buffer (35 mM Hepes, 0.25% BSA, 1× DMEM, PH=7.0). To each well, 990 μl binding buffer containing 1 nM 3H-AVP is added, followed by 10 μl series diluted Example compounds dissolved in DMSO. All incubations are done in triplicate and dose-inhibition curves consisting of total binding (DMSO) and 5 concentrations (0.1, 1.0, 10, 100, and 1000 nM) of test agents encompassing the IC50. 100 nM cold AVP (Sigma) is used to assess non-specific binding. Cells are incubated for 45 minutes at 37° C., assay mixture is removed and each well is washed three times with PBS (pH=7.4). 1 ml 2% SDS was added per well, plates were let sit for 30 minutes. The whole content of a well is transferred to a scintillation vial. Each well is rinsed with 0.5 ml PBS which is then added to the corresponding vial. Scintillation fluid (Ecoscint) is then added at 3 ml per vial. Samples are counted in a liquid scintillation counter (Beckman LS3801). IC50 values are calculated by Prism Curve fitting software.

[2] = molecular target: V2 receptor (Homo sapiens, UniProt P30518); assay: V2 receptor binding (primary binding at 10 μM and Ki); conditions: for inhibition at 10 µM: read-out: V2 binding, mean % inhibition
Chain of V2 receptor (P30518 whole entry): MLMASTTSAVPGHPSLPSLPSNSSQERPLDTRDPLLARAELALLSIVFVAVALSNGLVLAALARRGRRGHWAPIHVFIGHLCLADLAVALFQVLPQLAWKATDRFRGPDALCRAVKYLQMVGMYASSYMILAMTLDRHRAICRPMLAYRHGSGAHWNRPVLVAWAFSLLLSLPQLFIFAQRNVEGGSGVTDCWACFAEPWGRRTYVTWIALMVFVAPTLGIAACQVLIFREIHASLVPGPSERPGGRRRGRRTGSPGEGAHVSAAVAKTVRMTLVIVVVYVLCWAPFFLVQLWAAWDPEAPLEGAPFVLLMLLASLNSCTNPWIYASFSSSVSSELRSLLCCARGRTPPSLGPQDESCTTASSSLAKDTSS
Protocol: as §1, §2
(§3) See Examples for further details.

[3] = molecular target: T2, OT receptor (Homo sapiens, UniProt P30559); assay: OT receptor binding (primary binding at 10 μM and Ki); conditions: for inhibition at 10 µM: read-out: OT binding, mean % inhibition
T2 sequence (P30559 1-389): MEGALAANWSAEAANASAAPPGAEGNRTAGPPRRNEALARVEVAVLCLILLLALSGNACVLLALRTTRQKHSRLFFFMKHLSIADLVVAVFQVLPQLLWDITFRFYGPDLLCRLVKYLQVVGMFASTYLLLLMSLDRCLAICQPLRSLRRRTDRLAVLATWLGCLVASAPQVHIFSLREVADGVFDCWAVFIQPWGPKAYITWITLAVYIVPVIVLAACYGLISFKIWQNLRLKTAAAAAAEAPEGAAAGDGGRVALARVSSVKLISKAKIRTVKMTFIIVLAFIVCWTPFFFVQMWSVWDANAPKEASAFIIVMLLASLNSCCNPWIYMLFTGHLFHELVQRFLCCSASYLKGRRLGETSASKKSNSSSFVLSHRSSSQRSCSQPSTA
Protocol: as §2, §3

T1 sequence (P37288 whole entry): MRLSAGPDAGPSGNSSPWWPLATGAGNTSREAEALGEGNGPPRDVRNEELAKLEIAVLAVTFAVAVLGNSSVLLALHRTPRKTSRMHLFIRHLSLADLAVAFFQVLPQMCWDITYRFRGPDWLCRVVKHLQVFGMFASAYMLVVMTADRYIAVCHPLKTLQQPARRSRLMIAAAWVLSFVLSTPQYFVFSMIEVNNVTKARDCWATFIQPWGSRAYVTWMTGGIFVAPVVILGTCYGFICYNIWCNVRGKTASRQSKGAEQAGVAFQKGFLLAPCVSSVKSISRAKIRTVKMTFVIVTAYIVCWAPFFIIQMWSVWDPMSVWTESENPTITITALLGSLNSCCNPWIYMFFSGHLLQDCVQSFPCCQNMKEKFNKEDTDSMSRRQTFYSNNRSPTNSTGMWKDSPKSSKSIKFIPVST

## CCN(C(=O)N1CCN(c2ncccc2Cl)CC1)c1ccc(OC)cc1 [Compound 16]
[1]
  Ki: 1160 nM
[2]; at 10 μM
  inhibition at 10 µM: 12.7%
[3]; read-out: OT binding Ki
  Ki: 2320 nM

## CCN(C(=O)N1CCN(c2ccccn2)CC1)c1ccc(OC)cc1 [Compound 17]
[1]
  Ki: 79 nM
[2]; at 10 μM
  inhibition at 10 µM: 17.9%
[3]; read-out: OT binding Ki
  Ki: 118 nM

## CCN(C(=O)C1CCN(C(=O)OCc2ccccc2)CC1)c1ccc(OC)cc1 [Compound 18]
[1]; read-out: V1A binding, mean % inhibition
  inhibition at 10 µM: 19%
[2]
  inhibition at 10 µM: 12.8%
[3]
  inhibition at 10 µM: 2.8%

## CCN(C(=O)N1CCN(c2ncccc2C#N)CC1)c1ccc(OC)cc1 [Compound 19]
[1]
  Ki: 880 nM
[2]; at 10 μM
  inhibition at 10 µM: 5.7%
[3]; read-out: OT binding Ki
  Ki: 757 nM

## CCN(C(=O)N1CCCN(c2ncccc2C(F)(F)F)CC1)c1ccc(OC)cc1 [Compound 20]
[1]
  Ki: 851 nM
[2]; at 10 μM
  inhibition at 10 µM: 33%
[3]; read-out: OT binding Ki
  Ki: 329 nM

## CCN(C(=O)N1CCN(c2ncccc2C)CC1)c1ccc(OC)cc1 [Compound 21]
[1]
  Ki: 116 nM
[2]; at 10 μM
  inhibition at 10 µM: 24.3%
[3]; read-out: OT binding Ki
  Ki: 204 nM

## CCN(C(=O)N1CCN(c2ncccn2)CC1)c1ccc(OC)cc1 [Compound 22]
[1]; read-out: V1A binding Ki
  Ki: 1590 nM
[2]; at 10 μM
  inhibition at 10 µM: 6.6%
[3]; at 10 μM
  inhibition at 10 µM: 27.7%

## CCN(C(=O)C1CCN(c2ncccc2C(F)(F)F)CC1)c1ccc(OC)cc1 [Compound 24]
[1]
  Ki: 1170 nM
[2]; at 10 μM
  inhibition at 10 µM: 23.3%
[3]; read-out: OT binding Ki
  Ki: 265 nM

## CCN(C(=O)N1CCN(C(=O)C23CC4CC(CC(C4)C2)C3)CC1)c1ccc(OC)cc1 [Compound 25]
[1]; read-out: V1A binding Ki
  Ki: 3880 nM
[2]; at 10 μM
  inhibition at 10 µM: 40.4%
[3]; at 10 μM
  inhibition at 10 µM: 40.7%

## Cc1ccc(N(CC2CC2)C(=O)N2CCN(c3ccccc3C)CC2)cc1 [Compound 26]
[1]
  Ki: 3 nM
[2]
  Ki: 1860 nM
[3]; read-out: OT binding Ki
  Ki: 4.8 nM

## Cc1ccccc1N1CCN(C(=O)N(CC2CC2)c2ccc(Cl)cc2)CC1 [Compound 27]
[1]
  Ki: 1 nM
[2]
  Ki: 3780 nM
[3]; read-out: OT binding Ki
  Ki: 2.3 nM

## COc1ccccc1N(CC1CC1)C(=O)N1CCN(c2ccccc2C)CC1 [Compound 28]
[1]
  Ki: 107 nM
[2]
  Ki: 5010 nM
[3]; read-out: OT binding Ki
  Ki: 51 nM

## Cc1ccccc1N1CCN(C(=O)N(CC2CC2)c2ccc(OC(F)(F)F)cc2)CC1 [Compound 29]
[1]
  Ki: 12 nM
[2]
  Ki: 159 nM
[3]; read-out: OT binding Ki
  Ki: 61 nM

## COc1ccc(N(CC2CC2)C(=O)N2CCN(c3ccccc3C(F)(F)F)CC2)cc1 [Compound 30]
[1]
  Ki: 11 nM
[2]
  Ki: 75 nM
[3]; read-out: OT binding Ki
  Ki: 2.3 nM

## COc1ccc(N(CC2CC2)C(=O)N2CCN(c3cc(Cl)ccc3C)CC2)cc1 [Compound 31]
[1]
  Ki: 5 nM
[2]
  Ki: 7340 nM
[3]; read-out: OT binding Ki
  Ki: 6 nM

## COc1ccccc1N1CCN(C(=O)N(CC2CC2)c2ccc(OC(F)(F)F)cc2)CC1 [Compound 32]
[1]
  Ki: 11 nM
[2]
  Ki: 1700 nM
[3]; read-out: OT binding Ki
  Ki: 2.3 nM

## COc1ccc(N(CC2CC2)C(=O)N2CCN(c3ncc(Cl)cc3Cl)CC2)cc1 [Compound 33]
[1]
  Ki: 3 nM
[2]
  Ki: 205 nM
[3]; read-out: OT binding Ki
  Ki: 4.1 nM

## COc1ccc(N(CC2CC2)C(=O)C2CCN(Cc3ccccc3C(F)(F)F)C2)cc1 (stereo not drawn) [Compound 34]
[1]
  Ki: 19 nM
[2]
  Ki: 542 nM
[3]
  Ki: 24.5 nM

## COc1ccc(N(CC2CC2)C(=O)C2CCN(Cc3ccccc3Cl)C2)cc1 (stereo not drawn) [Compound 35]
[1]
  Ki: 71 nM
[2]; at 10 μM
  inhibition at 10 µM: < 50%
[3]; read-out: OT binding Ki
  Ki: 37.4 nM
